The record followed here is patent publication US20240268372A1, “Methods and Compositions for Extending Organ and Tissue Preservation” (The General Hospital Corporation, priority 2021, published 2024).

Where only a bound is given, the exact number is not on record here.

One experiment deals with whole rat livers. In words: Optimized partial freezing of whole rat livers: SNMP recovery after freezing. The note with it: −10° C., 1 day; at 3 h. The procedure: Within this standardized protocol, we first compared GLY, EG, and PG as main permeating CPA using a freezing temperature of −10° C. and storage duration of 1 day (FIG. 37). Using PG as the CPA, we subsequently tested the effect of freezing temperature (−10° C. vs −15° C.) and storage duration (1 day vs 5 days) on liver viability after partial freezing using the same protocol (FIG. 38).
Machine perfusion system: The perfusion system provides a continuous perfusion through the portal vein that is pressure, flow, and temperature controlled. The perfusates can be either recirculated or flushed with a single pass though the liver and perfusates can be changed without interrupting perfusion. The setup and operation of the perfusion system is described in detail elsewhere (see, e.g., ref. 15). There were two oxygenators used in this study, including the Radnoti (Cat #130144) and Affinity Pixie Oxygenator (Cat #BBP241). Due to the flexibility and low cost of the Radnoti oxygenator, it was first used for initial optimization and characterization studies, including determining the effect of permeating CPAs (GLY vs EG vs PG; FIG. 37), temperature (−10 vs −15° C., FIG. 38) storage duration (1 vs 5 days, FIG. 38), and warm ischemic injury. Once the major aspects of the protocol were optimized and characterized, we used the clinical grade Affinity Pixie Oxygenator. […]

For another experiment, the system named is rat livers. Put plainly: Initial partial freezing protocol of rat livers at −6° C., SNMP recovery. The note with it: glycerol 6% vol/vol with Snomax 1 g/L, 3-OMG 200 mM, PEG 5%.

As to `OCC(O)CO` [GLY, glycerol], the “weight gain during SNMP recovery” value in the experiment on whole rat livers was 35.00±20.49%. Moreover, in the experiment on rat livers, the “vascular resistance (mean±SD)” value is 0.11±0.05 mmHg*min/ml*g. Also, the edema in the experiment on rat livers (one-step hand syringe loading) is more than 60%.
